In data set [1] the test system is Mycobacterium tuberculosis. Briefly: Antitubercular activity against Mycobacterium tuberculosis H37Ra ATCC 25177 incubated for 40 mins by XTT Reduction Menadione Assay. It counts as functional. As to conditions: H37Ra ATCC 25177, 40 min. (Formazan colour is commonly taken as a measure of viable cells.)
Data set [2] can be described thus: Antitubercular activity against Mycobacterium bovis BCG ATCC 35743 incubated for 40 mins by XTT Reduction Menadione Assay. Type of data set: functional, Mycobacterium bovis BCG str. ATCC 35743. As to conditions: Mycobacterium tuberculosis variant bovis BCG, ATCC 35743, 40 min.
A further data set relates to Candida albicans. The data set is described as follows: Antifungal activity against Candida albicans NCIM 3471 after 48 hrs by agar cup plate method. Type of data set: functional. As to conditions: NCIM 3471, 48 h.
Data set [3] has as its system Fusarium oxysporum. The data set is described as follows: Antifungal activity against Fusarium oxysporum NCIM 1332 after 48 hrs by agar cup plate method. It counts as functional. As to conditions: NCIM 1332, 48 h.
The next data set has as its system Aspergillus flavus. Briefly: Antifungal activity against Aspergillus flavus NCIM 539 after 48 hrs by agar cup plate method. Type of data set: functional. As to conditions: NCIM 539, 48 h.
In another data set the test system is Aspergillus niger. Briefly: Antifungal activity against Aspergillus niger NCIM 1196 after 48 hrs by agar cup plate method. As to conditions: NCIM 1196, 48 h. It counts as functional.
In data set [4] the test system is Cryptococcus neoformans. The data set is described as follows: Antifungal activity against Cryptococcus neoformans NCIM 576 after 48 hrs by agar cup plate method. As to conditions: NCIM 576, 48 h. Type of data set: functional.
The subject of data set [5] is Mycobacterium tuberculosis. Briefly: Antitubercular activity against Mycobacterium tuberculosis H37Ra ATCC 25177 at 30 ug/ml incubated for 40 mins by XTT Reduction Menadione Assay. It counts as functional. As to conditions: H37Ra ATCC 25177, 40 min, read-out: GI.
Data set [6] deals with Mycobacterium tuberculosis. Briefly: Antitubercular activity against Mycobacterium tuberculosis H37Ra ATCC 25177 at 10 ug/ml incubated for 40 mins by XTT Reduction Menadione Assay. Type of data set: functional. As to conditions: H37Ra ATCC 25177, 40 min, read-out: GI.
In data set [7] the test system is Mycobacterium tuberculosis. Briefly: Antitubercular activity against Mycobacterium tuberculosis H37Ra ATCC 25177 at 3 ug/ml incubated for 40 mins by XTT Reduction Menadione Assay. As to conditions: H37Ra ATCC 25177, 40 min, read-out: GI. It counts as functional.
Data set [8] has as its system Mycobacterium bovis BCG str. ATCC 35743. The data set is described as follows: Antitubercular activity against dormant Mycobacterium bovis BCG ATCC 35743 at 30 ug/ml incubated for 40 mins by XTT Reduction Menadione Assay. Type of data set: functional.
Data set [9] has the same test system. The data set is described as follows: Antitubercular activity against dormant Mycobacterium bovis BCG ATCC 35743 at 10 ug/ml incubated for 40 mins by XTT Reduction Menadione Assay. It counts as functional.
Data set [10] has the same test system. Briefly: Antitubercular activity against dormant Mycobacterium bovis BCG ATCC 35743 at 3 ug/ml incubated for 40 mins by XTT Reduction Menadione Assay. It counts as functional.
The subject of data set [11] is Mycobacterium tuberculosis. The data set is described as follows: Antitubercular activity against dormant Mycobacterium tuberculosis H37Ra ATCC 25177 incubated for 40 mins by XTT Reduction Menadione Assay. Type of data set: functional. As to conditions: H37Ra ATCC 25177, 40 min.
The subject of data set [12] is Mycobacterium tuberculosis. Briefly: Antitubercular activity against active Mycobacterium tuberculosis H37Ra ATCC 25177 incubated for 40 mins by XTT Reduction Menadione Assay. As to conditions: H37Ra ATCC 25177, 40 min. Type of data set: functional.
Data set [13] relates to Mycobacterium bovis BCG str. ATCC 35743. The data set is described as follows: Antitubercular activity against dormant Mycobacterium bovis BCG ATCC 35743 incubated for 40 mins by XTT Reduction Menadione Assay. Type of data set: functional.
A short description of data set [14]: (§1) Cytotoxicity against human HeLa cells after 48 hrs by MTT assay. It counts as cell-based. As to conditions: HeLa cells.
The next data set relates to HeLa. Described as §1. As to conditions: hela, 48 h. Type of data set: cell-based.
The nature of data set [15]: Cytotoxicity against human PANC1 cells after 48 hrs by MTT assay. It counts as cell-based, PANC-1. As to conditions: for GI50 at 48 h: PANC1 cells; for GI90: panc-1, 48 h.
Data set [16] in a line: (§2) Cytotoxicity against human A549 cells after 48 hrs by MTT assay. As to conditions: A549 cells. Type of data set: cell-based.
The next data set has as its system A549. The description is as §2. Type of data set: cell-based. As to conditions: a549, 48 h.
Data set [17] in a line: Cytotoxicity against human THP1 cells after 48 hrs by MTT assay. Type of data set: cell-based, THP-1. As to conditions: for GI50 at 48 h: THP1 cells; for GI90: thp-1, 48 h.
For data set [18], the system named is Cryptococcus neoformans. Briefly: Antifungal activity against Cryptococcus neoformans NCIM 576 up to 200 ug/ml after 48 hrs by agar cup plate method. Type of data set: functional, organism-based.
The test system of data set [19] is Fusarium oxysporum. Briefly: Antifungal activity against Fusarium oxysporum NCIM 1332 up to 200 ug/ml after 48 hrs by agar cup plate method. It counts as functional, organism-based.
For the next data set, the system named is Escherichia coli. Briefly: Antibacterial activity against Escherichia coli after 18 hrs by broth dilution method. It counts as functional. For orientation: Dilution methods test growth across graded concentrations, often in twofold steps.
The subject of the next data set is Pseudomonas fluorescens. The data set is described as follows: Antibacterial activity against Pseudomonas fluorescens after 18 hrs by broth dilution method. It counts as functional.
The next data set deals with Staphylococcus aureus. The data set is described as follows: Antibacterial activity against Staphylococcus aureus after 18 hrs by broth dilution method. Type of data set: functional.
The next data set relates to Bacillus subtilis. Briefly: Antibacterial activity against Bacillus subtilis after 18 hrs by broth dilution method. Type of data set: functional.
Data set [20] in a line: Selectivity index, ratio of GI50 for human HeLa cells to MIC for Mycobacterium tuberculosis H37Ra ATCC 25177. Type of data set: toxicity, cell-based. As to conditions: read-out: Selectivity Index.
Data set [21] in a line: Selectivity index, ratio of GI50 for human HeLa cells to MIC for Mycobacterium bovis BCG ATCC 35743. It counts as toxicity, cell-based. As to conditions: read-out: Selectivity Index.
The nature of data set [22]: Selectivity index, ratio of GI50 for human PANC1 cells to MIC for Mycobacterium tuberculosis H37Ra ATCC 25177. As to conditions: read-out: Selectivity Index. Type of data set: toxicity, cell-based, PANC-1.
The nature of data set [23]: Selectivity index, ratio of GI50 for human PANC1 cells to MIC for Mycobacterium bovis BCG ATCC 35743. It counts as toxicity, cell-based, PANC-1. As to conditions: read-out: Selectivity Index.
The nature of data set [24]: Selectivity index, ratio of GI50 for human A549 cells to MIC for Mycobacterium tuberculosis H37Ra ATCC 25177. Type of data set: toxicity, cell-based. As to conditions: read-out: Selectivity Index.
Data set [25] in a line: Selectivity index, ratio of GI50 for human A549 cells to MIC for Mycobacterium bovis BCG ATCC 35743. Type of data set: toxicity, cell-based. As to conditions: read-out: Selectivity Index.
The nature of data set [26]: Selectivity index, ratio of GI50 for human THP1 cells to MIC for Mycobacterium tuberculosis H37Ra ATCC 25177. Type of data set: toxicity, cell-based, THP-1. As to conditions: read-out: Selectivity Index.
Data set [27] in a line: Selectivity index, ratio of GI50 for human THP1 cells to MIC for Mycobacterium bovis BCG ATCC 35743. As to conditions: read-out: Selectivity Index. Type of data set: toxicity, cell-based, THP-1.

In brackets after ≈: the same amount, converted by molar mass. Activity calls are given as the source filed them.

In general, MIC refers to the smallest concentration in the dilution series that meets the test's criterion for growth inhibition. What is called IC90 is the concentration needed for an effect of 90%. By GI50 is commonly meant the concentration giving 50% growth inhibition. As to `Cc1ccc2cc(/C=C3\SC(=S)N(CCC(=O)O)C3=O)c3nnnn3c2c1`, the minimal inhibitory concentration (MIC) in [1] came to 42.2 µg/mL (≈ 106 µM); in data set [2], 45.4 µg/mL (≈ 114 µM); with Candida albicans, 25 µg/mL (≈ 62.6 µM); with Fusarium oxysporum [3], 50 µg/mL (≈ 125 µM); against Aspergillus flavus it was 50 µg/mL (≈ 125 µM); against Aspergillus niger, 100 µg/mL (≈ 250 µM). The molecule further registered an MIC against Cryptococcus neoformans [4] of 50 µg/mL (≈ 125 µM). The inhibition of growth at 30 µg/mL in data set [5] is 60.3%. In data set [6], the inhibition of growth at 10 µg/mL came to 30%. For the same molecule, the inhibition of growth at 3 µg/mL in data set [7] is 16.6%. The growth inhibition (GI) in data set [8] stood at 41.2%; in [9], 12.3%; in data set [10], 4.55%. Also, the IC90 was found to be 42.2 µg/mL (≈ 106 µM) in data set [11], 45 µg/mL (≈ 113 µM) in [12] and 45.4 µg/mL (≈ 114 µM) in data set [13]. The 50% growth inhibitory concentration (GI50) at 48 h in [14], in [15], in data set [16] and in data set [17] was greater than 100 µg/mL in each case. The GI90 (in the data set on HeLa; in [15]; with A549; in data set [17]) was greater than 100 µg/mL in each case.
For `COc1ccc2c(c1)cc(/C=C1\SC(=S)N(CCC(=O)O)C1=O)c1nnnn12`, the MIC is greater than 250 µg/mL in [1]; greater than 250 µg/mL in data set [2]; 150 µg/mL (≈ 361 µM) with Candida albicans; 125 µg/mL (≈ 301 µM) in the data set with Fusarium oxysporum [3]; 150 µg/mL (≈ 361 µM) against Aspergillus flavus; 150 µg/mL (≈ 361 µM) in the data set on Aspergillus niger. In addition, the MIC entry in the data set with Cryptococcus neoformans [18] was “inactive”. Moreover, the inhibition of growth at 30 µg/mL in [5] amounted to 15.9%. Also, the inhibition of growth at 10 µg/mL in data set [6] was found to be 27.9%. Moreover, the inhibition of growth at 3 µg/mL in data set [7] is -0.42%. Besides, the results for the growth inhibition (GI) in [8], in data set [9] and in [10] were 23.9%, 16% and 8.94%, respectively.
As to `COc1ccc2c(c1)cc(/C=C1\SC(=S)NC1=O)c1nnnn12`, the MIC was greater than 250 µg/mL in data set [1]; greater than 250 µg/mL in [2]; 150 µg/mL (≈ 437 µM) in the data set with Candida albicans; 150 µg/mL (≈ 437 µM) in the data set with Aspergillus flavus; 100 µg/mL (≈ 291 µM) in the data set on Aspergillus niger; 150 µg/mL (≈ 437 µM) against Cryptococcus neoformans [4]. For the same molecule, the minimum inhibitory concentration (MIC) in the data set on Escherichia coli amounted to 198 µg/mL (≈ 577 µM); with Pseudomonas fluorescens, 169 µg/mL (≈ 493 µM); with Staphylococcus aureus, 144 µg/mL (≈ 419 µM); in the data set on Bacillus subtilis, 96.8 µg/mL (≈ 282 µM). In addition, the MIC result in the data set on Fusarium oxysporum [19] is “inactive”. Also, the inhibition of growth at 30 µg/mL in [5] is -5.72%. Besides, in data set [6], the inhibition of growth at 10 µg/mL worked out at 17.6%. Further, the inhibition of growth at 3 µg/mL in data set [7] was determined as 18.9%. The values for the growth inhibition (GI) in [8], in data set [9] and in [10] were 32.5%, 17.1% and 12.5%, respectively.
On to `COc1ccc2cc(/C=C3\SC(=S)N(CC(=O)O)C3=O)c3nnnn3c2c1`, for which the minimal inhibitory concentration (MIC) in data set [1] came to 92.3 µg/mL (≈ 230 µM); in data set [2], 121 µg/mL (≈ 302 µM); with Candida albicans it was 100 µg/mL (≈ 249 µM); against Aspergillus flavus, 150 µg/mL (≈ 374 µM); against Aspergillus niger it was 150 µg/mL (≈ 374 µM); in the data set with Cryptococcus neoformans [4] it was 175 µg/mL (≈ 436 µM). The MIC result with Fusarium oxysporum [19] was “inactive”. For the same molecule, in data set [5], the inhibition of growth at 30 µg/mL is 97.2%. Moreover, the inhibition of growth at 10 µg/mL in data set [6] was found to be 13.6%. In data set [7], the inhibition of growth at 3 µg/mL came out at 3.59%. Besides, the growth inhibition (GI) in data set [8] was 25.6%; in data set [9] it was 37.3%; in data set [10] it was 12.7%. The IC90 was 92.3 µg/mL (≈ 230 µM) in data set [11] and 159 µg/mL (≈ 396 µM) in [12]. Also, the GI50 at 48 h in data set [14], in data set [15], in [16] and in [17] was greater than 100 µg/mL each time. Also, the GI90 (with HeLa; in [15]; in the data set with A549; in [17]) was greater than 100 µg/mL throughout. Besides, the selectivity ratio in data set [20] is 1.1; in [21], 4.13; in data set [22] it was 1.1; in [23], 4.13; in data set [24] it was 1.1; in data set [25], 4.13. The selectivity ratio was determined as 1.1 in data set [26] and 4.13 in [27].
